Data as given in patent US6670360B2, “Optically active pyrrolopyridazine derivatives” (Sankyo Company, Limited, priority 1999, dated 2003).

How the values were obtained:
gastric acid secretion = experiment: Gastric acid secretion inhibition activity in pylorus-ligated rats; assay type: in vivo; conditions: for 50% inhibitory dose (ID50, mg/kg) against gastric acid secretion: pylorus-ligated rats, oral administration, four hours after administration
Excerpt: Gastric Acid Secretion Inhibition Activity After groups of rats, each group consisting of 3 to 5 rats, were fasted overnight, they were subjected to midline abdominal incision and their pylorus was ligated under anesthesia with ether. The stomach and duodenum were returned to their original positions in the body, followed by closing at the abdominal incision part. A predetermined amount of a test compound was suspended in an aqueous solution containing 0.5% of sodium carboxymethylcellulose and 0.4% of Tween 80 (Polysorbate 80). The resulting suspension was orally administered to the rats. As a control, an aqueous suspension (suspending solvent) containing 0.5% of sodium carboxymethylcellulose and 0.4% of Tween 80 (Polysorbate 80) was orally administered to other rats. Four hours after administration of the test compound or suspending solvent, the rats were sacrificed by inhalation of CO2 gas. They were subjected to abdominal incision to remove their stomach. The content of the stomach was collected in a glass-made graduated centrifuge tube. After centrifugation, the amount (ml) of the supernatant and the amount (ml) of the precipitate were measured. The precipitate of the amount exceeding 0.5 ml was regarded as coprophage and removed from the data. The supernatant (100 μl) was poured into a test tube. Distilled water (4 ml) was added to the solution, and the solution was titrated to pH 7.0 with 0.01 N sodium hydroxide. A standard acid concentration solution obtained by adding 4 ml of distilled water to 100 μl of 0.1 N hydrochloric acid was titrated in a similar manner. […]

[1] = tested on: Helicobacter pylori strains 9470, 9472 and 9474; experiment: Antibacterial action against Helicobacter pylori (MIC, agar dilution); assay type: cell-based; conditions: 72 h, cultured at 37° C. for 3 days, microaerophilic conditions, read-out: MIC (Minimum Inhibitory Concentration) against Helicobacter pylori
Procedure: Antibacterial Action Against Helicobacter pylori The antibacterial activity of the invention compound was evaluated by using Helicobacter pylori strains 9470, 9472 and 9474 and determining MIC (Minimum Inhibitory Concentration) of the invention compound against Helicobacter pylori. Helicobacter pylori was cultured by plating for 4 days. A medium was prepared by dissolving Brain Heart Infusion Agar (product of Difco Laboratories) in a prescribed amount of distilled water, sterilizing in an autoclave, adding equine blood (product of Nippon Seibutsu Zairyo) to give its concentration of 7% and then solidifying the mixture. Under microaerophilic conditions, Helicobacter pylori which had been cultured at 37° C. for 4 days was suspended in physiological saline to give its viable count of about 10^8 CFU/ml. The suspension was then diluted to 100 times and a portion (about 10 μl) of the diluted suspension was inoculated in a medium for measuring MIC. The medium employed for measuring MIC has the same composition as the preculture medium. A compound of this invention was dissolved in dimethyl sulfoxide (DMSO) and two-fold serial dilutions were made with sterilized water. After mixing the solution and the medium in a ratio of 1:99, a solidified product in the Petri dish was employed as an MIC measuring medium. […]

[2] = molecular target: T1, proton potassium-adenosine triphosphatase (H+·K+-ATPase) (Sus scrofa, UniProt P19156); experiment: Test on activity of proton potassium-adenosine triphosphatase (H+·K+-ATPase); assay type: biochemical; conditions: microsomal fraction of swine gastric mucosal layer, pH 6.85, 37° C.; read-out: 50% inhibitory concentration (IC50) against proton-potassium-adenosine triphosphatase
T1 construct: A microsomal fraction prepared in accordance with the method of Sachs, et al; from tissue; host or cells: swine gastric mucosa, microsomal fraction (density gradient ultracentrifugation)
Procedure: Test on Activity of Proton Potassium-adenosine Triphosphatase (H^+·K^+-ATPase) A microsomal fraction prepared in accordance with the method of Sachs, et al. [J. Bio., Chem., 251, 7690 (1976)] by homogenizing a fresh gastric mucosal layer of swine and then subjecting the homogenate to density gradient ultra centrifugation was employed as a proton potassium-adenosine triphosphatase preparation. A solution (10 μl) of a test compound dissolved in dimethyl sulfoxide was added to 0.75 ml of a 70 mM tris-hydrochloric acid buffer (5 mM magnesium chloride, 20 mM potassium chloride, pH=6.85) containing 30 to 80 μg/ml, in terms of a protein concentration, of an enzyme preparation. The mixture was incubated with 200 times/min of agitation at 37° C. for 45 minutes. The enzymatic reaction was started by adding 0.25 ml of a 8 mM solution of disodium adenosine triphosphate. After this enzymatic reaction was continued for 20 minutes, 1 ml of a 10% trichloroacetic acid-activated charcoal (100 mg) solution was added to terminate the reaction. The reaction mixture was centrifuged (at 4° C. and 3000 rpm) for 15 minutes. […] The amount of inorganic phosphoric acid in a reaction mixture free from potassium chloride was also measured. By subtracting this amount from the amount of inorganic phosphoric acid in the presence of potassium chloride, proton potassium-adenosine triphosphatase activity was determined. […]

T1 sequence (P19156 2-1034 limits assumed): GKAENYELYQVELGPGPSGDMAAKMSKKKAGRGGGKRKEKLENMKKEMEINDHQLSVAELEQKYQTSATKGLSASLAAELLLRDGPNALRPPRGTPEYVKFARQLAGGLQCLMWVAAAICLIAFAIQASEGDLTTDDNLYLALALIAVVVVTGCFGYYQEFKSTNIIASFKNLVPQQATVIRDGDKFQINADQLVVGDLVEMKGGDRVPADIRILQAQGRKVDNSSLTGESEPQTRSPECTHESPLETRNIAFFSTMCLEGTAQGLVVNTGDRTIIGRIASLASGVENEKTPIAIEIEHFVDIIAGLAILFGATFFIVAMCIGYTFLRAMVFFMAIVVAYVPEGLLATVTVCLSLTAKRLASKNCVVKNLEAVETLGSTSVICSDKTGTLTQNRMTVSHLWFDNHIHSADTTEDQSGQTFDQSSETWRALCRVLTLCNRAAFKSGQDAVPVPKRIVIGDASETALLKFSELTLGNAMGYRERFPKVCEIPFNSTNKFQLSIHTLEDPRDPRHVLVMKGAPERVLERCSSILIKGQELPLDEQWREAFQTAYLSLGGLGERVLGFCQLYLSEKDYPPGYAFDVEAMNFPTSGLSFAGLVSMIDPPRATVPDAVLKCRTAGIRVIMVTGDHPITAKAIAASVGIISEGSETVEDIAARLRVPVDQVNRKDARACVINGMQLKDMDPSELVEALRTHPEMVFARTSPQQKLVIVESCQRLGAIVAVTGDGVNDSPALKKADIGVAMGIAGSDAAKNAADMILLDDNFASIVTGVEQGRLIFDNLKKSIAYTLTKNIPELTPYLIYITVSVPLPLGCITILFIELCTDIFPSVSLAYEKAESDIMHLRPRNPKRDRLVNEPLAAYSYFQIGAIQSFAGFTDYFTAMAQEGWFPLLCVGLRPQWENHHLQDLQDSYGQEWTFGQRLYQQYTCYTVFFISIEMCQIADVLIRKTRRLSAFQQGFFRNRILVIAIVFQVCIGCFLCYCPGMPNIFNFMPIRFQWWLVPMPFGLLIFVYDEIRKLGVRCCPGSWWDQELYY
T1 sequence (P18434 whole entry partner): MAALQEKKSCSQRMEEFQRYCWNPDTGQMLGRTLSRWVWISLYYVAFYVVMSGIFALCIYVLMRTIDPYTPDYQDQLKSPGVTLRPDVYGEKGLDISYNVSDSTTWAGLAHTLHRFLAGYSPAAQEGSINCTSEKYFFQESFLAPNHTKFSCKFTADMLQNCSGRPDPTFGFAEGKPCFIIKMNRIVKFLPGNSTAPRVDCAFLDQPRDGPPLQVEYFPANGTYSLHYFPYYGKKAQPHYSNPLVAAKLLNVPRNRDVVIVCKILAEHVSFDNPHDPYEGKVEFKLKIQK

MIC [1] [µg/mL]	IC50 [2] [nM]	SMILES	50% inhibitory dose (ID50, mg/kg) against gastric acid secretion (gastric acid secretion) [mg/kg]	effects on gastric acid secretion relative to its racemate (times stronger) (gastric acid secretion; from ID50 values of Table 2, versus racemate (Compound A))
		Cc1c(C)n(CC2CC2C)c2c(OCc3ccc(F)cc3)nncc12 (racemic) [Compound A, 7-(4-Fluorobenzyloxy)-1-[(E)-2-methylcyclopropylmethyl]-2,3-dimethylpyrrolo[2,3-d]pyridazine (racemate), reference compound]	1.64	
≤ 12.5	≤ 295	Cc1c(C)n(C[C@H]2C[C@@H]2C)c2c(OCc3ccc(F)cc3)nncc12 [Example 1, 7-(4-Fluorobenzyloxy)-2,3-dimethyl-1-[(1S,2S)-2-methylcyclopropylmethyl]pyrrolo[2,3-d]pyridazine]	0.52	about 3 times
